Reference: patent publication US6750228B1, “Aromatic sulfone hydroxamic acid metalloprotease inhibitor” (priority 1997, dated 2004)
Counter-ions that a name gives are not always drawn. Like-named read-outs stand apart in the source and are kept apart here.

Legend:
Test in all cases: biochemical
MMP-13 = molecular target: T1, MMP-13 (Homo sapiens, UniProt P45452); settings: read-out: MMP-13 IC50
T1 construct: made in house; host or cells: baculovirus / insect cells
Procedure, shortened: (§1)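 APMA- or trypsin-activated enzymes were preincubated with inhibitor for 5 min at room temperature, then the fluorogenic substrate MCA-Pro-Leu-Gly-Leu-Dpa-Ala-Arg-NH2 was added to a final 4 μM.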

MMP-1 = molecular target: T2, MMP-1 (Homo sapiens, UniProt P03956); settings: read-out: MMP-1 IC50
T2 construct: made in house; host or cells: transfected HT-1080 cells (provided by Dr. Harold Welgus, Washington University)
T2 sequence (P03956 100-469): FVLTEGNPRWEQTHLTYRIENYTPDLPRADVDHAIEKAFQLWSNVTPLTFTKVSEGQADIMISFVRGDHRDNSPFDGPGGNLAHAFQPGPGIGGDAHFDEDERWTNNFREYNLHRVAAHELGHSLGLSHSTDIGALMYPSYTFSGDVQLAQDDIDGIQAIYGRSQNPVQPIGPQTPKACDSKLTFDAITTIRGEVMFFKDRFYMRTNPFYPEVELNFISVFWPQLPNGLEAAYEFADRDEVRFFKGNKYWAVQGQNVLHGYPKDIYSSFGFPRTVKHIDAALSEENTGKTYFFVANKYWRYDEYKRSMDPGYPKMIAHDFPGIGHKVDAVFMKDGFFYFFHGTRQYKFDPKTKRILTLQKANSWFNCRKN
Procedure, shortened: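 Substrate MCA-PLGL-Dpa-AR-NH2 at 4 μM final; pH 7.5 Tris/NaCl/CaCl2 buffer with 0.05% polyethyleneglycol lauryl ether, 1% DMSO, room temperature. MMP-1 was expressed in transfected HT-1080 cells and APMA-activated.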

MMP-2 = molecular target: T3, MMP-2 (Homo sapiens, UniProt P08253); settings: read-out: MMP-2 IC50
T3 construct: made in house; provided by Dr. Gregory Goldberg, Washington University
T3 sequence (P08253 110-660): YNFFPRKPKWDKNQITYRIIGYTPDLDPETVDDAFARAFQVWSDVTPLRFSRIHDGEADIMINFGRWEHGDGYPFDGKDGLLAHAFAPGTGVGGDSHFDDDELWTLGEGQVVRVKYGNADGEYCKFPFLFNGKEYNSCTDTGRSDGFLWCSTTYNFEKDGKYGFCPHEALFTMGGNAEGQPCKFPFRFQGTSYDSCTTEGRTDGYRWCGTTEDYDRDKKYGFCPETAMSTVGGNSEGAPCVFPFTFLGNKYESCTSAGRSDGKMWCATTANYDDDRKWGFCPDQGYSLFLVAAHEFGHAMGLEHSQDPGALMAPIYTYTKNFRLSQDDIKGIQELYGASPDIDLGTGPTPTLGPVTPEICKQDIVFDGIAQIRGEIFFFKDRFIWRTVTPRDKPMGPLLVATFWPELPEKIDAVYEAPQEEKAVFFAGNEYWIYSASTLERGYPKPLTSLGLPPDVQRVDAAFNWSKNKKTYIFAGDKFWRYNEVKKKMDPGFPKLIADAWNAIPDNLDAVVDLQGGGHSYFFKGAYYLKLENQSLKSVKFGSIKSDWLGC
Procedure, shortened: as §1

[1] = recombinant human MMP-13, MCA peptide substrate 4 μM, pH 7.5, room temperature
[2] = recombinant human MMP-1, MCA peptide substrate 4 μM, pH 7.5, room temperature
[3] = recombinant human MMP-2, MCA peptide substrate 4 μM, pH 7.5, room temperature

SMILES	IC50 (MMP-13; [1]) [nM]	IC50 (MMP-1; [2]) [nM]	IC50 (MMP-2; [3]) [nM]	IC50 (MMP-13) [nM]	IC50 (MMP-1) [nM]	IC50 (MMP-2) [nM]
O=C(NO)C1(S(=O)(=O)c2ccc(N3CCC(OCc4cccc(OC(F)(F)F)c4)CC3)cc2)CCOCC1 [Example 173]	6.7	3400	330			
COCCN(CCOC)CC(=O)N1CCC(C(=O)NO)(S(=O)(=O)c2ccc(N3CCC(C(=O)N4CC(C)CC(C)C4)CC3)cc2)CC1 (stereo not drawn) [Example 303]	115	> 10000	> 10000			
CC1CC(C)CN(C(=O)C2CCN(c3ccc(S(=O)(=O)C4(C(=O)NO)CCN(C(=O)CNCc5ccncc5)CC4)cc3)CC2)C1 (stereo not drawn) [Example 285]	19.3	> 10000	9000			
COCCN(CCCCC(=O)N1CCC(C(=O)NO)(S(=O)(=O)c2ccc(Oc3ccc(C(F)(F)F)cc3)cc2)CC1)CCOC [Example 342]	4	> 10000	0.3			
CC1CC(C)CN(C(=O)C2CCN(c3ccc(S(=O)(=O)C4(C(=O)NO)CCN(C(=O)CN5CCCCC5)CC4)cc3)CC2)C1 (stereo not drawn) [Example 296]	50	> 10000	> 10000			
O=C(NO)C1(S(=O)(=O)c2ccc(Oc3ccc(OC(F)(F)F)cc3)cc2)CCN(C(=S)NCCN2CCCCC2)CC1 [Example 200]	0.2	3000	< 0.1			
COCCN1CCC(C(=O)NO)(S(=O)(=O)c2ccc(N3CCC(C(=O)N4CC(C)CC(C)C4)CC3)cc2)CC1 (stereo not drawn) [Example 233, 4-[[4-[4-[(3,5-Dimethyl-1-piperidinyl)carbonyl]-1-piperidinyl]-phenyl]sulfonyl]-N-hydroxy-1-(2-methoxyethyl)-4-piperidinecarboxamide, Monohydrochloride]				43.5	> 10000	2050
O=C(NO)C1(S(=O)(=O)c2ccc(N3CCC(Oc4ccc(C(F)(F)F)cc4[N+](=O)[O-])CC3)cc2)CCOCC1 [Example 571]	28.6	> 10000	140			
CN1CCCN(c2ccc(S(=O)(=O)C3(C(=O)NO)CCOCC3)cc2)CC1 [Example 213]	1400	> 10000	2700			
COCCN1CCC(C(=O)NO)(S(=O)(=O)c2ccc(N3CCC(C(=O)N4CCc5ccccc54)CC3)cc2)CC1 [Example 246, 4-[[4-[4-[(2,3-Dihydro-1H-indol-1-yl)carbonyl]-1-piperidinyl]-phenyl]sulfonyl]-N-hydroxy-1-(2-methoxyethyl)-4-piperidinecarboxamide, Monohydrate]	32.7	> 10000	2700			
C/C=C/CC(=O)C1CCN(c2ccc(S(=O)(=O)C3(C(=O)NO)CCOCC3)cc2)CC1 [Example 761]	5	> 10000	41.8			
O=C(NO)C1(S(=O)(=O)c2ccc(N3CC4CC3CN4c3cccc(F)c3)cc2)CCOCC1 (stereo not drawn) [Example 491]	> 10000	> 10000	> 10000			
CC(=N)N1CCC(C(=O)NO)(S(=O)(=O)c2ccc(Oc3ccc(OC(F)(F)F)cc3)cc2)CC1 [Example 412]	0.4	6400	0.2			
O=C(NC1CCN(c2ccc(S(=O)(=O)C3(C(=O)NO)CCOCC3)cc2)CC1)c1ccc(OC(F)(F)F)cc1 [Example 752]	14.8	> 10000	271			
O=C(NO)C1(S(=O)(=O)c2ccc(N3CCN(c4ccc(F)cc4F)CC3)cc2)CCOCC1 [Example 87]	4	> 10000	15.5			
CS(=O)(=O)N1CCC(C2CCN(c3ccc(S(=O)(=O)C4(C(=O)NO)CCOCC4)cc3)CC2)CC1 [Example 793]	4	> 10000	23.5			
CN(C)c1cccc(C(=O)C2CCN(c3ccc(S(=O)(=O)C4(C(=O)NO)CCOCC4)cc3)CC2)c1 [Example 790]	4.5	> 10000	700			
CC(C)c1cccc(OC2CCN(c3ccc(S(=O)(=O)C4(C(=O)NO)CCOCC4)cc3)CC2)c1 [Example 482]	6	> 10000	4			
O=C(CCc1cnc[nH]1)N1CCC(C(=O)NO)(S(=O)(=O)c2ccc(Oc3ccc(OC(F)(F)F)cc3)cc2)CC1 [Example 350]	0.1	6000	< 0.1			

SMILES	IC50 (MMP-13; [1]) [nM]	IC50 (MMP-1; [2]) [nM]	IC50 (MMP-2; [3]) [nM]	IC50 (MMP-13) [nM]	IC50 (MMP-1) [nM]	IC50 (MMP-2) [nM]
Cc1cccc(COC2CCC(Oc3ccc(S(=O)(=O)C4(C(=O)NO)CCOCC4)cc3)C2)c1 (stereo not drawn) [Example 706]	4.3	> 10000	40			
O=C(Nc1cccc(C(F)(F)F)c1)OC1CCN(c2ccc(S(=O)(=O)C3(C(=O)NO)CCOCC3)cc2)CC1 [Example 188, N-Hydroxy-4[[[4-[(3-trifluoromethyl)phenylcarbamoxy]piperidyl]phenyl]sulfonyl]-1-tetrahydropyrancarboxamide]	7	> 10000	235			
O=C(NO)C1(S(=O)(=O)c2ccc(N3CCC(OCc4ccccc4)CC3)cc2)CCOCC1 [Example 165]	3	> 10000	48.5			
O=C(NO)C1(S(=O)(=O)c2ccc(N3CCC(Oc4ccc5c(c4)CCCC5)CC3)cc2)CCOCC1 [Example 483]	32.6	> 10000	10.6			
O=C(Nc1ccccc1Cl)OC1CCN(c2ccc(S(=O)(=O)C3(C(=O)NO)CCOCC3)cc2)CC1 [Example 521]	3.5	> 10000	50			
O=C(CCCCN1CCOCC1)N1CCC(C(=O)NO)(S(=O)(=O)c2ccc(Oc3ccc(C(F)(F)F)cc3)cc2)CC1 [Example 335]	0.9	> 10000	0.15			
COC1CCCN(c2ccc(S(=O)(=O)C3(C(=O)NO)CCOCC3)cc2)C1 (stereo not drawn) [Example 524]	2700	> 10000	6400			
CC(=O)N1CCN(c2ccc(S(=O)(=O)C3(C(=O)NO)CCOCC3)cc2)CC1 [Example 539]	270	> 10000	350			
O=C(Nc1ccc(C(F)(F)F)cc1)N1CCC(C(=O)NO)(S(=O)(=O)c2ccc(Oc3ccc(C(F)(F)F)cc3)cc2)CC1 [Example 141]	20	> 10000	9			
O=C(NO)C1(S(=O)(=O)c2ccc(N3CCC(OCc4ccccc4Cl)CC3)cc2)CCOCC1 [Example 574]	10.6	> 10000	220			
O=C(c1ccco1)N1CCC(C(=O)NO)(S(=O)(=O)c2ccc(N3CCC(OCc4ccc(F)c(C(F)(F)F)c4)CC3)cc2)CC1 [Example 433]	450	> 10000	3500			
O=C(CCCCN1CCCC1)N1CCC(C(=O)NO)(S(=O)(=O)c2ccc(Oc3ccc(C(F)(F)F)cc3)cc2)CC1 [Example 341]	0.6	> 10000	0.2			
CC1CC(C)CN(C(=O)C2CCN(c3ccc(S(=O)(=O)C4(C(=O)NO)CCSCC4)cc3)CC2)C1 (stereo not drawn) [Example 162]				27.8	> 10000	7000
O=C(NO)C1(S(=O)(=O)c2ccc(N3CCN(c4cc(C(F)(F)F)ccn4)CC3)cc2)CCOCC1 [Example 534]	30	> 10000	480			
O=C(CN1CCNCC1)N1CCC(C(=O)NO)(S(=O)(=O)c2ccc(Oc3ccc(C(F)(F)F)cc3)cc2)CC1 [Example 328]	0.35	> 10000	0.4			
O=C(NO)C1(S(=O)(=O)c2ccc(N3CC[C@@H](OCc4cccc(C(F)(F)F)c4)C3)cc2)CCOCC1 [Example 532]	10	> 10000	150			
COc1cccc(NC(=O)N2CCC(C(=O)NO)(S(=O)(=O)c3ccc(Oc4ccc(OC(F)(F)F)cc4)cc3)CC2)c1 [Example 353]	0.3	> 10000	< 0.1			
COc1ccc(Oc2ccc(S(=O)(=O)C3(C(=O)NO)CCSCC3)cc2)cc1 [Example 146]				0.2	3000	0.3
